Among the data in patent publication US4416817A, “3-Methoxy-2-oxoazetidine derivatives and their production” (Takeda Chemical Industries, Ltd., priority 1979, dated 1983) are MIC values, retold here.

What all share (assay): Antimicrobial spectrum, minimum inhibitory concentration
What all share (type): cell-based

Experiment [1] deals with Proteus mirabilis IFO 3849. The settings on record: IFO3849, medium TSA. The source says:
(§1) TSA = Trypticase soy agar [Baltimore Biologicals
(§2) BTSA = Blood trypticase soy agar

Experiment [2] has as its system Staphylococcus aureus FDA209P. The settings on record: medium TSA (Trypticase soy agar).
From the text: as §1, §2

Experiment [3] concerns Pseudomonas morganii IFO 3168. The settings on record: IFO3168, medium TSA.
From the text: as §1, §2

For experiment [4], the system named is Streptococcus pyogenes S-8. The note with it: S8, medium B-TSA.
From the text: as §1, §2

Experiment [5] relates to Escherichia coli NIHJ JC-2. The note with it: NIHJJC2, medium TSA.
From the text: as §1, §2

In experiment [6] the test system is Pseudomonas aeruginosa U 31. The settings on record: U31, medium TSA.
From the text: as §1, §2

Experiment [7] has as its system Candida albicans TA. The note with it: medium TSA.
From the text: as §1, §2

Experiment [8] relates to Streptococcus pyogenes E-14. The note with it: E14, medium B-TSA (Blood trypticase soy agar).
From the text: as §1, §2

For experiment [9], the system named is Serratia marcescens IFO 12648. The note with it: IFO12648, medium TSA.
From the text: as §1, §2

Experiment [10] relates to Enterobacter cloacae IFO 12937. The settings on record: IFO12937, medium TSA.
From the text: as §1, §2

Experiment [11] relates to Escherichia coli O-111. The settings on record: O111, medium TSA.
From the text: as §1, §2

The test system of experiment [12] is Klebsiella pneumoniae DT. The note with it: medium TSA.
From the text: as §1, §2

The subject of experiment [13] is Corynebacterium diphtheriae Toronto. The settings on record: medium B-TSA.
From the text: as §1, §2

Experiment [14] has as its system Proteus vulgaris IFO 3988. The note with it: IFO3988, medium TSA.
From the text: as §1, §2

In the case of `CCN1CCN(C(=O)N[C@@H](C(=O)NC2(OC)CN(S(=O)(=O)O)C2=O)c2ccccc2)C(=O)C1=O` (single isomer, unassigned) [Compound, sodium 3-[D(-)-2-(4-ethyl-2,3-dioxo-1-piperazinocarboxamido)phenylacetamido]-3-methoxy-2-oxoazetidine-1-sulfonate], the MIC in experiment [1] is 50 µg/mL; in [2], 100 µg/mL; in experiment [3] it was over 100 µg/mL; in experiment [4] it was 50 µg/mL; in experiment [5], 50 µg/mL; in [6] it was over 100 µg/mL. The MIC was over 100 µg/mL in experiment [7]; 50 µg/mL in experiment [8]; 50 µg/mL in [9]; over 100 µg/mL in experiment [10]; 12.5 µg/mL in experiment [11]; 12.5 µg/mL in experiment [12]. The MIC was determined as 50 µg/mL in experiment [13] and 12.5 µg/mL in experiment [14].

Broadly, the MIC is the least concentration at which growth counts as inhibited. Low values mean a more susceptible organism, high ones a less susceptible organism.
